Results from article PMC4890168 (Journal of medicinal chemistry, 2016).

Experiments:
[1] = system: cardiomyocytes isolated from adult mice; test: Contractility in mouse cardiomyocytes; details: for potency at stimulating cardiomyocyte contraction: compared with lead 2, isoproterenol stimulation
[2] = target: T1, GRK2 (Bos taurus, UniProt P21146, S670A, species not given); test: GRK2 kinase inhibition; assay type: biochemical
T1 sequence (P21146 1-689 S670A): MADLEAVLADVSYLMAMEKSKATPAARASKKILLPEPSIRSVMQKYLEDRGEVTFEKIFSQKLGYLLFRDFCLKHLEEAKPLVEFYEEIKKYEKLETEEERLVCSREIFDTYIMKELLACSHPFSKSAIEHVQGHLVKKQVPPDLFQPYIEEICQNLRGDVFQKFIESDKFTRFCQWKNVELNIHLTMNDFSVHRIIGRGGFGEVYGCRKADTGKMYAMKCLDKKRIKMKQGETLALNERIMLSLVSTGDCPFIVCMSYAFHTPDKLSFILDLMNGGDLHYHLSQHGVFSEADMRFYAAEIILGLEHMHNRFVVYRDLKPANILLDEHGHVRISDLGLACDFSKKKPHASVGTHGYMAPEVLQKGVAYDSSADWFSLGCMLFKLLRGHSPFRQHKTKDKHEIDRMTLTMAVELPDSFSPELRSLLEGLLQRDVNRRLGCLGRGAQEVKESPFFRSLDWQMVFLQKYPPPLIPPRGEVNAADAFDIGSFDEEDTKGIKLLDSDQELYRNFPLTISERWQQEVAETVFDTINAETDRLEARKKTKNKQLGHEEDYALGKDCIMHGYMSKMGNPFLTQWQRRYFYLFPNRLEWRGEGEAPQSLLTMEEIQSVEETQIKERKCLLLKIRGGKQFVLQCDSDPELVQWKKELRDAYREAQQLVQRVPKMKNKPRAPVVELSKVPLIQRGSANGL

[3] = target: PKA (Homo sapiens, UniProt P17612); test: PKA inhibition, ADP-Glo Kinase Assay
[4] = target: ROCK1 (Homo sapiens, UniProt Q13464); test: ROCK1 inhibition, ADP-Glo Kinase Assay
[5] = target: T2, GRK1 (Homo sapiens, UniProt Q15835); test: GRK1 kinase inhibition
T2 sequence (Q15835 1-563): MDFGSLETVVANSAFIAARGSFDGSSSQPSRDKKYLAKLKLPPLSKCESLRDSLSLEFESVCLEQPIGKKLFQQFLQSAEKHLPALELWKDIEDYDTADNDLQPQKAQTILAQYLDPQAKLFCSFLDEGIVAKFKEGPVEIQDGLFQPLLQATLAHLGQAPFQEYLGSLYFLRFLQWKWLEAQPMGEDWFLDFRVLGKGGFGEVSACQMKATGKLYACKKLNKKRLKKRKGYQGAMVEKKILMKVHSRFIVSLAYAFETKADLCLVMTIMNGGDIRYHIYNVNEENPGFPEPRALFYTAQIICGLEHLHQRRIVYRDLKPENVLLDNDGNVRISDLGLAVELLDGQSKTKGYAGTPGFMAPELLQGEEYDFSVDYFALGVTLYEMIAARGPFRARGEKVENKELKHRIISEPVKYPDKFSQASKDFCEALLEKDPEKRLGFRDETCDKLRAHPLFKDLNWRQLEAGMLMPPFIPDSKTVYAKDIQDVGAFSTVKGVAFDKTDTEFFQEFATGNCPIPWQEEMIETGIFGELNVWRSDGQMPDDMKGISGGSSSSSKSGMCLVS

[6] = target: GRK5 (Homo sapiens, UniProt P34947); test: GRK5 kinase inhibition
Sequence of GRK5 (P34947 whole entry, species assumed): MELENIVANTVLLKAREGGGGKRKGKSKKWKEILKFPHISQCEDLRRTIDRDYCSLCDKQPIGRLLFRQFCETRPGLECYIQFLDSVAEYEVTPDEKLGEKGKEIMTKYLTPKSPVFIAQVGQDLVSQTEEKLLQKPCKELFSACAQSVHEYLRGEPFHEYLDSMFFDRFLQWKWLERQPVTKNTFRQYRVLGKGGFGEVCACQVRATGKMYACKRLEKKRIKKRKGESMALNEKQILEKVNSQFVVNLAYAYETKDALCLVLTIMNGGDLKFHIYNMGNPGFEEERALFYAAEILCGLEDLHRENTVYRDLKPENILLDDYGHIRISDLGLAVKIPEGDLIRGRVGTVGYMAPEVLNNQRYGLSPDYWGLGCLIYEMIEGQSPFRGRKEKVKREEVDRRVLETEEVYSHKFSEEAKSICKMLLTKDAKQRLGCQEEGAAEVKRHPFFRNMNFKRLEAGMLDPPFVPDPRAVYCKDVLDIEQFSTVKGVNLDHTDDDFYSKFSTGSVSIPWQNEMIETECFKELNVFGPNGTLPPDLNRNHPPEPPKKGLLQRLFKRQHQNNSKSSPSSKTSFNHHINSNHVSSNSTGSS

Sequence of ROCK1 (Q13464 whole entry, species assumed): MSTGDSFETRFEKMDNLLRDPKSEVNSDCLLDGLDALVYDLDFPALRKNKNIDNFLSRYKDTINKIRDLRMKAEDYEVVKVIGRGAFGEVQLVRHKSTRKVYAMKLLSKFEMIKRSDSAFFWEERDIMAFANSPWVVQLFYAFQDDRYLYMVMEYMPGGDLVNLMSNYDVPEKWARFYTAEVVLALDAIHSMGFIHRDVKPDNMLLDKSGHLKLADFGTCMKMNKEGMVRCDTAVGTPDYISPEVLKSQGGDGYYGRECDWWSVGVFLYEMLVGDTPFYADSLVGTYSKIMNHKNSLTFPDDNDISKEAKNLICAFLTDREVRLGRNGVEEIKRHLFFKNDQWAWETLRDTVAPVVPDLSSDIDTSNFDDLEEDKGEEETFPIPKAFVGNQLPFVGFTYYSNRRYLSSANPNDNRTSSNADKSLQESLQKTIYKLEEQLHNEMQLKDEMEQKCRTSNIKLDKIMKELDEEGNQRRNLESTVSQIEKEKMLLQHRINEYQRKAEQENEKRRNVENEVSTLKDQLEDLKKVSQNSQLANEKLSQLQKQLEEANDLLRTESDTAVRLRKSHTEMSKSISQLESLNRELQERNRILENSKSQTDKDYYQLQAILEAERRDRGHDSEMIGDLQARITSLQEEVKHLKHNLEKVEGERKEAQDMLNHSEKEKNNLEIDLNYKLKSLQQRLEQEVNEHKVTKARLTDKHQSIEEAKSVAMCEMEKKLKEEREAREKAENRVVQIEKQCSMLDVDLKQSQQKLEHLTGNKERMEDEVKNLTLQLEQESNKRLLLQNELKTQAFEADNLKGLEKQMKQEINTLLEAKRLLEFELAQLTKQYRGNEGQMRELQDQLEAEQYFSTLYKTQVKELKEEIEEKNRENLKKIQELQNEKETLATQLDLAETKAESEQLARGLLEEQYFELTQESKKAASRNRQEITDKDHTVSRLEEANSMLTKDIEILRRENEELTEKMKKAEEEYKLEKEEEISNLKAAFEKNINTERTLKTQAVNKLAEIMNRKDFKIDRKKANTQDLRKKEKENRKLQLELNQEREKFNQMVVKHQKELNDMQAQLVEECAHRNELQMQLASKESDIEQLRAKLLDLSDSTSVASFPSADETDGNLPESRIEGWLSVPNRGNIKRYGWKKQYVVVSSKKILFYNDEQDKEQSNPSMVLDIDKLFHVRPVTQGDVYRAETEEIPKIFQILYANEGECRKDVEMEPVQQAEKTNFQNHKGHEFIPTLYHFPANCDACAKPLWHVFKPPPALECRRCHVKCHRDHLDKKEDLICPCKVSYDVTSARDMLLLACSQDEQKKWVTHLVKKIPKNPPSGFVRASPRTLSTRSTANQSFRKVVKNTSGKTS

`CC1=C(C(=O)Nc2ccc3[nH]ncc3c2)C(c2ccc(F)cc2)NC(=O)N1` (stereo not shown) [Compound 2, GSK180736A, reference compound] was tested, and the “concentration showing similar efficacy as paroxetine (10 μM) on contractility” value ([1]; isoproterenol 0.5 μM, 10 min pretreatment) was 1 µM.
`CC1=C(C(=O)Nc2ccc3[nH]ncc3c2)C(c2ccc(F)c(C(=O)O)c2)NC(=O)N1` (stereo not shown) [Compound 10, 5-(5-((1H-Indazol-5-yl)carbamoyl)-6-methyl-2-oxo-1,2,3,4-tetrahydropyrimidin-4-yl)-2-fluorobenzoic acid] was tested, and the “loss in potency against GRK2 relative to 2” value [2] was 20 fold and the “loss in potency against PKA relative to 2” value [3] was 2 fold.
In the case of `CNC(=O)c1cc(C2NC(=O)NC(C)=C2C(=O)Nc2ccc3[nH]ncc3c2)ccc1F` (stereo not shown) [Compound 12a, 4-(4-Fluoro-3-(methylcarbamoyl)phenyl)-N-(1H-indazol-5-yl)-6-methyl-2-oxo-1,2,3,4-tetrahydropyrimidine-5-carboxamide], the “loss in potency against GRK2 relative to 2” value [2] is reported as 5 fold and the IC50 [3] is reported as > 100 µM.
In the case of `CC1=C(C(=O)Nc2ccc3[nH]ncc3c2)C(c2ccc(F)c(C(=O)NCc3c(F)cccc3F)c2)NC(=O)N1` (stereo not shown) [Compound 12d, 4-(3-((2,6-Difluorobenzyl)carbamoyl)-4-fluorophenyl)-N-(1H-indazol-5-yl)-6-methyl-2-oxo-1,2,3,4-tetrahydropyrimidine-5-carboxamide], the IC50 [3] is reported as > 100 µM and the “potency at stimulating cardiomyocyte contraction” value [1] is reported as “equivalent to or slightly more potent than the lead 2”.
In the case of `CC1=C(C(=O)Nc2ccc3[nH]ncc3c2)C(c2ccc(F)c(C(=O)NCc3ccccn3)c2)NC(=O)N1` (stereo not shown) [Compound 12h, 4-(4-Fluoro-3-((pyridin-2-ylmethyl)carbamoyl)phenyl)-N-(1H-indazol-5-yl)-6-methyl-2-oxo-1,2,3,4-tetrahydropyrimidine-5-carboxamide], the IC50 [3] is reported as > 100 µM, the IC50 [4] is reported as ~0.01 µM and the “increase in potency for ROCK1 over 2” value [4] is reported as 10 fold.
With `CC1=C(C(=O)Nc2ccc3[nH]ncc3c2)C(c2ccc(F)c(C(=O)NCc3nccc4ccccc34)c2)NC(=O)N1` (stereo not shown) [Compound 12k, 4-(4-Fluoro-3-((isoquinolin-1-ylmethyl)carbamoyl)phenyl)-N-(1H-indazol-5-yl)-6-methyl-2-oxo-1,2,3,4-tetrahydropyrimidine-5-carboxamide] the IC50 [4] was ~0.01 µM and the “increase in GRK1 potency in comparison to 12h” value [5] was 50 fold.
`CC1=C(C(=O)Nc2ccc3[nH]ncc3c2)C(c2ccc(F)c(C(=O)NCc3c(Cl)cccc3Cl)c2)NC(=O)N1` (stereo not shown) [Compound 12l, 4-(3-((2,6-Dichlorobenzyl)carbamoyl)-4-fluorophenyl)-N-(1H-indazol-5-yl)-6-methyl-2-oxo-1,2,3,4-tetrahydropyrimidine-5-carboxamide] was tested, and the IC50 [3] was > 100 µM, the “selectivity for GRK2 over GRK1” value [5] was “over 770 fold” and the “selectivity for GRK2 over GRK5” value [6] was “over 770 fold”.
In the case of `CC1=C(C(=O)Nc2ccc3[nH]ncc3c2)C(c2ccc(F)c(C(=O)NCc3c(C)cccc3C)c2)NC(=O)N1` (stereo not shown) [Compound 12m, 4-(3-((2,6-Dimethylbenzyl)carbamoyl)-4-fluorophenyl)-N-(1H-indazol-5-yl)-6-methyl-2-oxo-1,2,3,4-tetrahydropyrimidine-5 carboxamide], the IC50 [3] is reported as > 100 µM and the “potency at stimulating cardiomyocyte contraction” value [1] is reported as “equivalent to or slightly more potent than the lead 2”.
In the case of `COc1cccc(OC)c1CNC(=O)c1cc(C2NC(=O)NC(C)=C2C(=O)Nc2ccc3[nH]ncc3c2)ccc1F` (stereo not shown) [Compound 12n, 4-(3-((2,6-Dimethoxybenzyl)carbamoyl)-4-fluorophenyl)-N-(1H-indazol-5-yl)-6-methyl-2-oxo-1,2,3,4-tetrahydropyrimidine-5-carboxamide], the IC50 [3] is reported as > 100 µM, the “decrease in potency at ROCK1 compared to 12e” value [4] is reported as “over 175 fold” and the “inhibition of ROCK1” value [4] is reported as “no detectable inhibition”. The “decrease in potency at GRK1 compared to 12e” value [5] was 6 fold, the “decrease in potency at GRK5 compared to 12e” value [6] was 43 fold and the “potency at stimulating cardiomyocyte contraction” value [1] was “equivalent to or slightly more potent than the lead 2”.
`CC1=C(C(=O)Nc2ccc3[nH]ncc3c2)C(c2ccc(F)c(CC(=O)NCc3c(C)cccc3C)c2)NC(=O)N1` (stereo not shown) [Compound 13a, 4-(3-(2-((2,6-Dimethylbenzyl)amino)-2-oxoethyl)-4-fluorophenyl)-N-(1H-indazol-5-yl)-6-methyl-2-oxo-1,2,3,4-tetrahydropyrimidine-5-carboxamide] was tested, and the IC50 [3] was > 100 µM.
For `CC1=C(C(=O)Nc2ccc3[nH]ncc3c2)C(c2ccc(F)c(CC(=O)NCc3c(C(F)(F)F)cccc3C(F)(F)F)c2)NC(=O)N1` (stereo not shown) [Compound 13b, 4-(3-(2-((2,6-Bis(trifluoromethyl)benzyl)amino)-2-oxoethyl)-4-fluorophenyl)-N-(1H-indazol-5-yl)-6-methyl-2-oxo-1,2,3,4-tetrahydropyrimidine-5-carboxamide], the IC50 [3] was > 100 µM.
In the case of `COc1cccc(OC)c1CNC(=O)Cc1cc(C2NC(=O)NC(C)=C2C(=O)Nc2ccc3[nH]ncc3c2)ccc1F` (stereo not shown) [Compound 13c, 4-(3-(2-((2,6-Dimethoxybenzyl)amino)-2-oxoethyl)-4-fluorophenyl)-N-(1H-indazol-5-yl)-6-methyl-2-oxo-1,2,3,4-tetrahydropyrimidine-5-carboxamide], the IC50 [3] is reported as > 100 µM.
`CC1=C(C(=O)N(C)c2ccc3[nH]ncc3c2)C(c2ccc(F)c(C(=O)NCc3c(C)cccc3C)c2)NC(=O)N1` (stereo not shown) [Compound 20, 4-(3-((2,6-Dimethylbenzyl)carbamoyl)-4-fluorophenyl)-N-(1H-indazol-5-yl)-N,6-dimethyl-2-oxo-1,2,3,4-tetrahydropyrimidine-5-carboxamide] was tested, and the “decrease in potency at GRK2 compared to 12m” value [2] was ~70 fold and the IC50 [3] was > 100 µM.
`CC1=C(C(=O)Nc2ccc3c(c2)OCO3)C(c2ccc(F)c(C(=O)NCc3ccccn3)c2)NC(=O)N1` (stereo not shown) [Compound 24, N-(Benzo[d][1,3]dioxol-5-yl)-4-(4-fluoro-3-((pyridin-2-ylmethyl)carbamoyl)phenyl)-6-methyl-2-oxo-1,2,3,4-tetrahydropyrimidine-5-carboxamide] was tested, and the “kinase inhibition” value ([2]; GRK2, GRK1, GRK5, PKA (Table 2)) was “completely inactive” and the IC50 [3] was > 100 µM.
`Fc1ccc([C@@H]2CCNC[C@H]2COc2ccc3c(c2)OCO3)cc1` [Paroxetine, paroxetine, reference compound] was tested, and the IC50 [3] was > 100 µM.
